These results are taken from patent US9522187B2, “Cancer therapy using beta glucan and antibodies” (University of Louisville Research Foundation, Inc., priority 2002, dated 2016).

For data set [1], the target named is T1, CR3 (Homo sapiens, UniProt P11215).
T1 construct: endogenous in cells
Description: Inhibition of SZP-FITC staining of neutrophils by unlabeled polysaccharides. It is filed as binding. Conditions: compared with soluble yeast MP β-glucan or SZP. The method, then:
Neutrophils were incubated at 4° C. with graded concentrations of β-glucans (SZP, laminarin, MP β-glucan, barley β-glucan, and lentinan), α-mannan or dextran for 15 minutes and then stained by addition of 1.0 mg/ml of SZP-FITC and incubated for an additional 15 minutes at 4° C. Percentage inhibition was then compared with polysaccharide concentration. […] Similar results were obtained when the same unlabeled polysaccharides were examined for inhibition of laminarin β-glucan-FITC staining. The rank order for inhibiting activity for both experiments was SZP>laminarin>MP β-glucan. However, CM β-glucan (carboxymethyl β-glucan from yeast), barley β-glucan, and lentinan inhibited laminarin-FITC staining more efficiently than they inhibited SZP-FITC staining.

In data set [2] the test system is human LAN-1 neuroblastoma. The data set is described as follows: Oral barley β-glucan with antibody against LAN-1 neuroblastoma xenograft (FIG. 10). It is filed as in vivo, athymic BALB/c mice. As to conditions: β-glucan daily by gavage for 21-29 days; 3F8 i.v. twice weekly. The method, then: Neuroblastoma cells were xenografted subcutaneously in athymic BALB/c mice. Treatment started in groups of 5 mice, 2 weeks after tumor implantation when visible tumors reached 0.7-0.8 cm in diameter. The β-glucan groups was treated with […] daily by gavage for a total of 21-29 days. Monoclonal antibodies (3F8) were administered i.v. at a dose of […] twice weekly. Tumor size was measured from the first day of treatment, and the product of the largest diameter was expressed as a percentage of the size on day zero.

Data set [3] deals with T1, CR3. Description: Neutrophil fluorescence staining by FITC-labeled polysaccharides (flow cytometry). As to conditions: neutrophils. It is filed as binding. An excerpt:
Fluorescence intensity values obtained with individual polysaccharide-FITC conjugates cannot be compared, since the molar ratio of FITC to polysaccharide is likely to differ and cannot be readily calculated.
On the technique in general: Flow cytometry measures light scatter and fluorescence of single cells or particles in a stream.

A further data set relates to Human NK cells. The data set is described as follows: β-glucan and CR3-dependent stimulation of NK cell cytokine secretion, ELISA (FIG. 13). It is filed as cell-based. Conditions: 18 hours at 37° C.; particulate yeast β-glucan and grifolan 2 g/ml, MP β-glucan and SZP 2.0 μg/ml. The protocol: The function of NK cells in mediating host defense includes both direct cytotoxicity of tumor cells and the secretion of cytokines such as TNF-α and IFN-γ that can potentially regulate immune responses and recruit tumoricidal macrophages. […] Human NK cells were cultured with either particulate yeast β-glucan or soluble CR3-binding polysaccharides for 18 hours at 37° C. Culture supernatants were then analyzed for TNF-α by ELISA. […] Anti-CR3 blocks both β-glucan binding to CR3, as well as the binding of primed CR3 to iC3b on the EC3bi target cells.
For orientation: ELISA stands for enzyme-linked immunosorbent assay.

Data set [4] concerns advanced low-grade or slow-growing NHL. Conditions: patients who completed treatment; cited from earlier work.
The next data set has as its system RMA-S lymphoma. Description: Survival of mice with RMA-S hepatic lymphomas treated with 14.G2a and/or β-glucan (FIG. 16). Format: in vivo, C57B1/6 mice. As to conditions: therapy from day 5 for 3 weeks. The protocol: The C57B1/6 lymphoma EL-4, that highly expresses membrane GD2 ganglioside, was provided by Dr. Nai-Kong V. Cheung. Normal C57B1/6 mice were injected with 3×10^5 EL-4 cells i.v. to generate liver tumors (Zhang, H., et al., Cancer Res., 58: 2844-2849 (1998)). Ten days later, 4 groups of 6 mice were given i.v. 100 μl doses of: a) PBS (control group), b) SZP β-glucan (4 mg/ml) repeated daily, c) 3F8 mAb to GD2 ganglioside (2 mg/ml) repeated every 3rd day, or d) both daily β-glucan and 3F8 mAb every 3rd day. After 2 weeks of therapy, the mice were sacrificed and their livers were removed and weighed in comparison to the livers of a group of normal tumor-free mice. The net weight of liver tumors was calculated by subtracting the weight of a normal liver (1.0 g) from the weights of the livers from tumor-bearing mice. A similar liver tumor model was carried out using the C57B1/6 lymphoma RMA-S that similarly expresses GD2 ganglioside but is defective in peptide loading of MHC class I (kindly provided by Dr. Olivera J. Finn, Pittsburgh Cancer Institute, Pittsburgh, Pa.) in combination with 14.G2a mAb to GD2 ganglioside (100 μg, given i.v. every 3rd day). Mice were similarly divided into 4 groups that were treated beginning 5 days after i.v. injection of 3×10^5 cells with: 1) i.v. PBS (control), 2) i.v. NSG β-glucan (400 μg per day), 3) 14.G2a mAb, or 4) both NSG β-glucan and 14.G2a mAb. […]

The next data set has as its system MMT mammary carcinoma. Description: β-glucan therapy of MMT mammary carcinoma in normal and C3-deficient 129/J mice (FIG. 8). Format: in vivo. Conditions: daily i.v. therapy. An excerpt: The requirement for C3 in β-glucan therapy was confirmed in experiments with C3-deficient 129/J mice implanted with the MMT mammary carcinoma. Twelve normal (C3+/+) and 12 C3-deficient (C3−/−) 129/J mice were implanted with the MMT mammary carcinoma tumor cell line and palpable tumors were allowed to form before beginning daily i.v. therapy of groups of 6 mice each with PBS or β-glucan. A similar protocol was used with normal (CD+/+) and CR3-deficient (CD11b-knockout; Cd11b−/−) BALB/c mice implanted with Ptas64 mammary tumors.

For data set [5], the system named is RMA-S-MUC1 tumor cells. Description: s.c. RMA-S-MUC1 tumor therapy with 14.G2a or BCP8 mAb and/or NSG β-glucan (FIG. 17B-C, 18B-C). It is filed as in vivo, C57B1/6 mice. As to conditions: 2-week therapy, observed for a 4-month period. The protocol:
Three different tumor therapy protocols are shown. FIG. 17A is a graph showing Pta64 therapy with 11CI anti-MMTV mAb combined with glucan. FIG. 17B is a graph showing RMA-S-MUC1 therapy with i.v. 14 G2a anti-GD2 mab combined with glucan. FIG. 17C is a graph showing RMA-S-MUC1 therapy with i.v. BCP8 anti-MUC1 mab combined with glucan. After tumor cells were implanted, small tumors were allowed to form over 5-9 days before immunotherapy was carried out for a total period of 14 days. […] In graphs B and C, C57B1/6 mice were implanted s.c. with RMA-S-MUC1 tumor cells and then 5 days later treated with either 14.G2a anti-GD2 ganglioside and/or NSG β-glucan (300 μg per day) or BCP8 IgG2b […] and/or NSG β-glucan ([…] per day). […] Mean values and standard errors (SE) of the mean are shown.
(§1) RMA-S cells transfected with human MUC1 were also provided by Dr. Finn (Soares, M. M., et al., J. Immunol., 166: 6555-6563 (2001)), and 1×10^6 cell were implanted s.c. in C57B1/6 mice in or near a mammary fat pad. […]

The test system of data set [6] is RMA-S-MUC1 tumor cells. Description: s.c. RMA-S-MUC1 tumor therapy in CR3-deficient versus wild-type mice (FIG. 19, 20). It is filed as in vivo, C57B1/6 mice. The protocol: FIGS. 19A-19B are graphs showing the enhancement of tumor regression mediated by NSG β-glucan requires leukocyte CR3 and fails in CR3-deficient (CD11b^−/−) mice. FIG. 19A is a graph showing the tumor diameter vs. therapy of wild type mice. FIG. 19B is a graph showing the tumor diameter vs. therapy of CR3 deficient mice. […] Tumor measurements were made at the indicated times (FIGS. 19A-19B) and then survival was monitored (FIGS. 20A-20B). Mice received 14.G2a anti-GD2 ganglioside mAb (100 μg every 3rd day) and/or NSG β-glucan (400 μg daily). There was no difference in the rate of tumor regression produced by mAb therapy alone in the CR3-deficient versus wild-type mice and there was no β-glucan enhancement of mAb-mediated tumor regression in the CR3-deficient mice. […] Mean values±SE of the mean are shown.
as §1

In data set [7] the test system is Lewis Lung carcinoma tumor cells transfected with human MUC1 (LL/2-MUC1). The data set is described as follows: s.c. LL/2-MUC1 Lewis lung carcinoma therapy in C3-deficient versus wild-type mice (FIG. 21, 22). It is filed as in vivo, C57B1/6 mice. The method, then: C3-deficient (C3^−/−) mice and their wild-type littermates on a C57BL/6 background were implanted s.c. with 1×10^6 Lewis Lung carcinoma tumor cells transfected with human MUC1 (LL/2-MUC1). After allowing 7 days for development of small tumors, mice were treated with BCP8 IgG2b anti-MUC1 mAb (200 μg every 3rd day) and/or NSG β-glucan (400 μg daily) for a total therapy period of 3 weeks. […] Mean values±SE of the mean are shown.
Lewis lung carcinoma cells (LL/2, CRL-1642) originally derived from C57B1/6 mice were obtained from the ATCC and transfected with a plasmid containing cDNA for human MUC1 that was provided by Dr. Olivera Finn (Soares, M. M., et al., J. Immunol., 166: 6555-6563, 2001.). A LL/2 line expressing a uniformly high surface density of MUC1 was selected by FACS sorting of cells stained with BCP8-FITC mAb (MoFlo High Speed Cell Sorter, Dako-Cytomation, Fort Collins, Colo.). A further selection was made by passaging the cell line two times in C57B1/6 mice given the cells s.c. A tumor line was selected that both expressed uniformly high levels of surface MUC1 and was capable of generating s.c. tumors in C57B1/6 injected with as few as 5×10^5 cells. Therapy of mice bearing these s.c. tumors was initiated after 7 days when tumors were only 1-2 mm in diameter. Four groups of six C3-deficient or their wild-type littermate C57B1/6 mice were treated with: a) i.v. PBS every 3rd day (control); b) 400 μg of NSG β-glucan given i.v. daily; c) 200 μg of BCP8 anti-MUC1 mAb given i.v. every 3rd day; d) combined therapy with BCP8 mAb and NSG β-glucan. Therapy was given for 3 weeks with measurement of tumor diameters every 3rd day, and mice were sacrificed when tumors reached 15 mm diameter. Mice were observed over a total period of 90 days for tumor-free survival.

The test system of data set [8] is iC3b-opsonized breast tumor cells. Description: β-glucan priming of murine neutrophil CR3 for cytotoxicity (FIG. 4). Format: cell-based. As to conditions: normal murine neutrophils. The protocol: The effect of β glucan priming of murine neutrophil CR3 on subsequent cytotoxic triggering by iC3b-opsonized breast tumor cells is shown in FIG. 4. […] This activity disappears, however, when antibody to the CD11b (murineCR3 equivalent) is added, interfering with the receptor's ability to bind to iC3b. […] Adding antibody against CD11b had little effect on CD11b-deficient neutrophils, as expected.

The next data set relates to EL-4 lymphoma. The data set is described as follows: mAb and/or β-glucan therapy of hepatic EL-4 lymphoma (FIG. 9, FIG. 15). It is filed as in vivo, C57B1/6 mice. Conditions: therapy from day 10 for 2 weeks; SZP β-glucan 100 μl of 4 mg/ml i.v. daily; 3F8 100 μl of 2 mg/ml i.v. every 3rd day. The protocol: Mice were injected with the EL-4 cells i.v., a protocol known to result in liver metastases. Ten days later, the mice were given daily i.v. doses of β-glucan alone, 3F8 mAb to GD2 ganglioside (a prominent tumor antigen of EL-4 cells), or 3-glucan plus 3F8 mAb. The 3F8 mAb is IgG3 and is a potent activator of complement and also mediates ADCC. […] As expected, the β-glucan had little effect on its own since the tumors bore little or no iC3b.
The C57B1/6 lymphoma EL-4, that highly expresses membrane GD2 ganglioside, was provided by Dr. Nai-Kong V. Cheung. Normal C57B1/6 mice were injected with 3×10^5 EL-4 cells i.v. to generate liver tumors (Zhang, H., et al., Cancer Res., 58: 2844-2849 (1998)). Ten days later, 4 groups of 6 mice were given i.v. 100 μl doses of: a) PBS (control group), b) SZP β-glucan (4 mg/ml) repeated daily, c) 3F8 mAb to GD2 ganglioside (2 mg/ml) repeated every 3rd day, or d) both daily β-glucan and 3F8 mAb every 3rd day. After 2 weeks of therapy, the mice were sacrificed and their livers were removed and weighed in comparison to the livers of a group of normal tumor-free mice. The net weight of liver tumors was calculated by subtracting the weight of a normal liver (1.0 g) from the weights of the livers from tumor-bearing mice. […]

“(1,3),(1,4)-β-D-glucan [barley β-glucan]”: the “affinity for CR3 (in words)” value at CR3 [1] is given as “relatively low affinity for CR3”. In addition, in data set [2], the “tumor growth (tumor size as percentage of day zero), in words” value is listed as “neither β-glucan or mAb alone showed much effect”.

On to Dextran-FITC, for which, at CR3 [3], the “Polysaccharide-FITC Concentration Required for Maximum Specific Fluorescence Staining (Saturation of Receptor Binding Sites)” value was “No specific staining” and the “Specific Fluorescence Mean Channel at Saturation (Total-Nonspecific Fluorescence Obtained in the Presence of Excess of Unlabeled Polysaccharide)” value stood at 0.

Consider grifolan, for which the “NK cell cytokine secretion in the absence of target cells, in words” value in the data set with Human NK cells is “secretion of both TNF-α and IL-6”.

Regarding “rituximab: monoclonal antibody used to treat a type of non-Hodkin's lymphoma”, in [4], the “patients having complete remission” value is 6% and the “patients whose tumors shrunk by at least one half” value is 48%.

Consider β-glucan, for which the figures for the “survival, in words” value (with RMA-S lymphoma; in data set [7] (wild-type mice)) were “no therapeutic benefit” and “survival advantage compared to mAb alone”, respectively. Moreover, the figures for the tumor reduction entry with MMT mammary carcinoma (C3-deficient (C3−/−) 129/J mice) and in the data set on MMT mammary carcinoma (normal (C3+/+) 129/J mice) were “no significant tumor reduction” and 79%, respectively. In the data set on RMA-S-MUC1 tumor cells [5], this substance came in with a survival of 20%. Besides, the “tumor regression, in words” value is listed as “no regression” in the data set on RMA-S-MUC1 tumor cells [6] (CR3-deficient mice) and “lower level of regression” in data set [7] (wild-type mice, BCP8 200 μg every 3rd day, NSG β-glucan 400 μg daily, 3 weeks). Also, the “mice remaining tumor-free (survival)” value with RMA-S-MUC1 tumor cells [6] (wild-type mice, 14.G2a 100 μg every 3rd day, NSG β-glucan 400 μg daily, 21 days) was “no survivors”. Besides, in [7] (C3-deficient mice), the “regression and survival, in words” value is on record as “neither mAb nor β-glucan, separately or combined, elicited any regression”. Besides, the “cytotoxicity towards iC3b-opsonized breast tumor cells, in words” value in [8] is “high level of cytotoxicity”. Also, the “reduction in liver tumor net weight compared to untreated controls” value in the data set on EL-4 lymphoma is 25.6%.
